Test results published in patent US20260287577A1, “APPLICATIONS OF HEPATOCYTE CO-CULTURE SYSTEM” (LifeNet Health, priority 2023, published 2026).

Columns and labels:
Type in all cases: cell-based, human
[1] = system: PHHs in the hTCS and DhTCS; assay: Nile Red staining of lipid accumulation in PHHs cultured in hTCS/DhTCS; conditions: normal PHHs in hTCS, lipogenic medium plus 0.5 μM OCA
Text: All-Human Triculture System. The hTCS was set up as previously described, including the medias, cell types, and expected functional performance. This protocol follows the guidelines of […] Health's ethics committee. All cells were isolated from donor tissue fully consented for research purposes by […] Health. PHHs have been designated as normal or diseased based on a histopathologic assessment of the tissue of origin by a board-certified pathologist, using the standard MASH CRN Scoring System. Formalin-fixed paraffin-embedded tissue sections were stained with H&E (FIG. 38) and Masson's Trichrome (FIG. 39) and assessed for steatosis, lobular inflammation, and hepatocyte ballooning to form the MAFLD Activity Score (NAS). Fibrosis was scored separately on a 4-point scale according to the classification as described by Kleiner et al (Kleiner et al., 2005). Tissues with a NAS of ≥4 were designated “Diseased” (n=4) while those with NAS of ≤3 were categorized as “Normal” (n=7) (Table 1). Glucose, Oleic Acid, and OCA Treatment. […] Nile Red Staining. Cells were washed with 1×DPBS (-Ca^++/-Mg^++) (Thermo Fisher) three times, and then Nile Red was added at a 1:500 dilution (Abcam). […] Nile Red staining was quantified by determining the densitometric fluorescence value (red channel) using Image J.

[2] = system: PHHs cultured in the hTCS; assay: Bile canaliculi formation, CDFDA staining; conditions: normal PHHs in hTCS, treated medium with addition of OCA (0.5 μM)
Description: Glucose, Oleic Acid, and OCA Treatment. […] 5-(and-6)-Carboxy-2′, 7′-Dichlorofluorescein Diacetate Staining. To visualize bile canaliculi formation, cells were rinsed twice with 1×DPBS (—Ca^++/—Mg^++) (Thermo Fisher). Fresh medium plus 5 μM 5-(and-6)-Carboxy-2′, 7′-Dichlorofluorescein Diacetate (CDFDA) (Thermo Fisher) were added to the cells and incubated for 20 minutes at 37° C. Cells were then washed twice with 1×DPBS (—Ca^++/—Mg^++), and DMEM (no phenol red) (Gibco) was added to the cells. Images were taken with an EVOS FL cell imaging system (Thermo Fisher) using a 10× objective.

[3] = system: PHHs in the hTCS and DhTCS; assay: Albumin secretion (ELISA) by PHHs in hTCS/DhTCS; conditions: normal PHHs in hTCS
Description: Albumin and Urea Assays. Supernatant was collected on the indicated days for measurement of albumin and urea. Three wells or greater were designated for each condition. Samples were run in duplicate. The concentration of albumin was determined using an ELISA assay (Abcam, Cambridge, MA) and performed according to the manufacturer's instructions. Urea was measured by a colorimetric kit (Stanbio, Boerne, TX) and performed according to the manufacturer's instructions. Bicinchoninic Acid Assay (BCA). The BCA assay was performed with supernatant collected on the designated day. Three wells or greater were designated for each condition. Samples were run in duplicate. Total protein concentration was determined using a kit (Thermo Fisher, Waltham, MA) and performed according to the manufacturer's instructions. Glucose, Oleic Acid, and OCA Treatment.

With `CC[C@H]1[C@@H](O)[C@@H]2[C@H](CC[C@]3(C)[C@@H]([C@H](C)CCC(=O)O)CC[C@@H]23)[C@@]2(C)CC[C@@H](O)C[C@@H]12` [OCA, 6α-ethyl-chenodeoxycholic acid] as the molecule, how does the “Nile Red staining (lipid accumulation)” value ([1]; day 7) read?
The value was 134.6%±13.6.

And the “Nile Red staining (lipid accumulation)” value ([1]; day 14, significantly less than treated only, 20160 min)?
The value was 126.1%±8.5.

And the “bile canalicular network formation compared to untreated PHHs” value [2]?
Its value is “appeared to increase bile canalicular network formation”.

And the “albumin, treated plus OCA compared to treated only” value ([3]; day 1, not significant)?
The value was “An increase in albumin”.

What about the albumin secretion ([3]; lipogenic medium plus 0.5 μM OCA, day 7) of the same molecule?
Its albumin secretion is 13,706±4,738 ng/mg total protein.

What about the albumin levels ([3]; lipogenic medium plus 0.5 μM OCA, day 14) of the same molecule?
Its albumin levels is 2,219±400 ng/mg total protein.
